In US20220194952A1, “TETRAPYRROLIC CONJUGATES AND USES THEREOF FOR IMAGING” (Health Research, Inc., priority 2019, published 2022):
Blank lines part the entries; values can stand above or below the compound they belong to.

Columns and labels:
[1] = Absorbance (UV-VIS) in methanol; format: physicochemical; conditions: ε665 for 2 (peak 660 nm), ε785 for 4 (peak 785 nm)
Description: Absorbance of 2 and 4 was measured using different concentrations in methanol on UV-VIS and indicates far-red peaks at 660 nm and 785 nm, with extinction coefficients ε665=47,500 L·mol^−1 cm^−1 and ε785=18,100 L·mol^−1 cm^−1 respectively.
Chemistry Methods: All reactions were carried out in heat gun-dried glassware under an atmosphere of nitrogen and magnetic stirring. Thin layer chromatography (TLC) was done on pre-coated silica gel sheets (layer thickness 0.2 mm). Column chromatography was performed either using silica gel 60 (70-230 mesh) or neutral alumina grade III. In some cases preparative TLC was used for the purification of compounds. Purity of the compounds was ascertained by TLC and HPLC analysis. All compounds including the intermediates were >95% pure. UV-visible spectra were recorded on FT UV-visible spectrophotometer using methanol as a solvent. Mass spectrometry analyses were performed at the Mass Spectrometry Facility, University at Buffalo, N.Y. Compounds 1 and 2 were synthesized by following the methodologies previously described.

[2] = Singlet oxygen phosphorescence at 1270 nm, methanol, pulsed laser 532 nm; format: physicochemical; conditions: near 5 μM, equi-absorbant at 532 nm, excited at 532 nm
Description: The photosensitizers, e. g., HPPH (control), 2 and 4 were individually dissolved in methanol (concentration: 5 μM) in polystyrene cuvettes and excited at 532 nm using a pulsed laser. Phosphorescence of singlet oxygen was detected at 1270 nm.
Before evaluating the imaging and photosensitizing potential of the chlorin 4 with extended ring system, its singlet oxygen producing ability was compared with the related chlorin 2. In brief, both compounds were individually dissolved in methanol in equi-absorbant (at 532 nm) concentrations near 5 μM and excited at 532 nm using a pulsed laser. The phosphorescence of singlet oxygen was detected at 1270 nm. From the results summarized in FIG. 4, it can be seen that compared to chlorin 2 with a five-member isocyclic ring, the related analog 4 with an extended ring system had remarkably lower singlet oxygen producing ability. Singlet oxygen quantum yields were φ=0.29 and φ=0.02 respectively, compared to HPPH φ=0.45.

[3] = Photobleaching in 17% bovine calf serum; format: physicochemical; conditions: 660 nm
Description: Photobleaching was performed in quartz cuvettes on a 5 μM solution of 2 and a 25 μM solution of 4 in 17% BCS. The higher molarity was chosen to approximate the absorbance of 2 at 5 μM. A dye laser was used at dose rate 75 mW/cm^2, and excitation wavelength for 2 was 660 nm and for 4 was 785 nm.
In photodynamic therapy, photobleaching is the photochemical alteration of a chromophore or a fluorophore molecule such that could either permanently is unable to fluoresce or alter its fluorescence characteristics. This is caused by cleaving of the covalent bonds or non-specific reaction between the reactive oxygen species (e.g., singlet oxygen) and the molecule. These […] species formed by conversion of the molecular oxygen present in tumor to singlet oxygen by exposing the photosensitizer with light at an appropriate wavelength. The rate of photobleaching of the PS should depend (a) availability of oxygen, (b) photostability of PS and finally (c) the singlet oxygen (or other reactive oxygen species) producing ability of the PS.
To investigate the photobleaching characteristics of the photosensitizers, compounds 2 and 4 in equimolar concentrations (5 μM) were taken in quartz cuvettes in 17% bovine calf serum. Dye lasers with appropriate wavelength (2: 660 nm and 4: 785 nm) were used at a dose rate of 75 mW/cm^2. Both the compounds in formulated forms were irradiated with light and the absorption spectra at their long wavelength absorptions were measured with time. The decay in absorbance was plotted against the time of light exposure.

[4] = tested on: Colon26 cells; assay: In vitro cytotoxicity (PDT) MTT assay; format: cell-based
Description: Drug concentrations were increased 10× (0.25 to 32.0 μM) and a significant cytotoxicity was observed only at high concentrations at the highest light dose.
Assessment of cell growth following treatment with compound solutions alone and after light exposure was determined by a colorimetric assay that measured the reduction of yellow 3-(4,5-dimethythiazol-2-yl)-2,5-diphenyl tetrazolium bromide (MTT) by mitochondrial succinate dehydrogenase.
Briefly cells were plated into 96 well plates, allowed to adhere to the plate and are treated with a range of compound concentrations for various lengths of time. The light source consisted of dye lasers (375; Spectra-Physics, Mt. View, Calif.) pumped by an argon-ion laser (either 171 or 2080; Spectra-Physics). The dye lasers were tuned to the appropriate wavelength for the compound being tested. Total light doses were ranged from 0.125 to 1.0 J/cm^2 at a fluence rate of 3.2 mW/cm^2. At 48 hours post PDT treatment, MTT was added. The solubilized formazan product was measured spectro-photometrically using a BIOTEK EL-800 plate reader. Data were processed using GEN5 software. A medium blank value was subtracted from all samples and Optical Density (O.D.) values of treated cells were divided by mean O.D. value of untreated cells for each light dose).
Colon26 cells were plated and allowed to adhere for 4 hours, then the photosensitizer was added and incubated at 37° C. for 24 hours. Plates were irradiated with 789 nm light from a dye laser at 3.2 mW/cm^2 for a total dose of 0.25 to 1.0 Joule/cm^2.

[5] = tested on: Colon26 tumors; assay: In vivo whole body tumor fluorescence imaging (IVIS Spectrum); design: species or system BALB/c mice; conditions: non-radioactive analogs, i.v., post-injection
Description: Before evaluating in vivo PDT efficacy of PS 4 by exposing the tumors with light, the time point for optimal tumor uptake of PS was determined by whole body fluorescence imaging of tumored mice at various time points after injecting the PS.
The multi-spectral imaging system, IVIS Spectrum (Perkin-Elmer) along with Living Image (image acquisition and analysis software) was used. IVIS Spectrum has the capability to use either trans-illumination (from the bottom) or epi-illumination (from the top) to illuminate in vivo fluorescent sources. […] Regions of interest (ROI) were defined for areas of compound accumulation (tumor, liver, skin) and total and average signal within the region were recorded. Fluorescent intensity is expressed as the total radiant efficiency ([p/s]/[μW/cm^2]. Results are expressed as mean total radiant efficiency of three mice±SD.

[6] = tested on: Colon26 tumors; assay: In vivo PDT efficacy; design: species or system BALB/c mice; conditions: dose 1 μmol/kg; light 135 J/cm^2, 75 mW/cm^2 at 24 h postinjection; 5 mice/group
Description: Tumors were exposed to light (135 J/cm^2, 75 mW/cm^2) at 24 h (hour) postinjection (optimal time for tumor uptake for both the PSs).
For determining the in vivo imaging and therapeutic potential of 2, BALB/c mice (5-10 mice/group) bearing Colon26 tumors were used. In brief, 1×10^6 Colon26 cells were injected in mice subcutaneously. The tumors were left to grow for 1 week until they achieve the desired size (3-5 mm) for treatment. The photosensitizer was injected intravenously following the animal protocol approved by RPCI IACUC committee. Irradiance occurred 24 hours after i. v. injection; light dose was 135 J/cm^2 at a dose rate of 75 mW/cm^2 using the near-IR wavelengths of interest: 665 nm or 789 nm.
Two axes of the tumor (L, longest axis; W, shortest axis) were measured in millimeters with the aid of a Vernier caliper. Tumor weight (mg) was estimated as a formula: tumor weight=1/2 (L×W2). Tumor measurements were taken daily for the first 10 days and at least three tine a week for the first 4 weeks of post therapy and twice a week thereafter. Endpoints were 400 mm^3 tumor volume or 60 days.

[7] = tested on: Colon26 tumors; assay: In vivo biodistribution of 124I-analogs; design: species or system BALB/c mice; conditions: for organ distribution (in words): ethanol/PBS formulation, i.v., 24, 48, 72 hours
Description: From left to right, each group is 24 hours 2, 48 hours 2, 72 hours 2, 24 hours 6, 48 hours 6, and 72 hours 6.
The labeled product, 6, was collected and dried.

[8] = tested on: Colon26 tumors; assay: PET imaging of 124I-analogs; conditions: ethanol/PBS formulation, 25 μCi/mouse
Description: Compounds were resuspended in 10% ethanol saline, and ˜50 μCi were injected per mouse.
Final product was formulated in 10% ethanol in saline for injection in mice for PET imaging and biodistribution studies. Formulations noted as Pluronic® were formulated in 2% Pluronic® F-127 in saline. Mice were injected with 50 μCi (˜100 μL) for biodistribution, or 100 μCi (˜200 μL) for PET imaging.

extinction coefficient at far-red absorbance peak [1]: 47,500 L·mol^−1 cm^−1
Singlet oxygen quantum yield φ [2]: 0.29
photobleaching experimental endpoint reached ([3]; 5 μM in 17% BCS, 75 mW/cm^2): 20%
fraction photobleached ([3]; 17% bovine calf serum, 5 μM, 75 mW/cm^2, by three hours): 80%
time of optimal uptake in tumor (fluorescence imaging) [5]: 24 h
Compound: CCC1=C(C)c2cc3[nH]c(cc4nc(c5c6[nH]c(cc1n2)c(C)c6C(=O)C5)[C@@H](CCC(=O)OC)[C@@H]4C)c(C)c3C(C)OCc1cccc([124I])c1 (stereo partly shown) [Compound 2, methyl 3-[1′-(m-iodobenzyloxy)ethyl]-3-devinyl pyropheophorbide]
in vitro cytotoxicity at 10× increased drug concentrations (in words) ([4]; 0.25 to 32.0 μM, significant cytotoxicity only at high concentrations at the highest light dose (FIG. 8B)): toxic effects only at high concentrations
in vitro cytotoxicity (in words) ([4]; variable drug concentrations, fixed light dose 1.0 J/cm^2 (FIG. 8A)): light dose-dependent cytotoxicity
tumor cure after PDT [6]: 80%

organ distribution (in words) [7]: significantly high uptake in spleen
time of maximum tumor uptake (PET) [8]: 24 h
Compound: CCC1=C(C)c2cc3[nH]c(cc4nc(c5c6[nH]c(cc1n2)c(C)c6C(=O)C5)[C@@H](CCC(=O)OC)[C@@H]4C)c(C)c3C(C)OCc1cccc(I)c1 (stereo partly shown) [Compound 2a, 3-(1′-m-iodobenzyloxy) ethyl-3-devinyl-pyropheo phorbide-a methyl ester, reference compound]

tumor uptake ([7]; BALB/c mice implanted with Colon26 tumors, i.v.): > 9 % of the injected dose
Compound: CCC1=C(C)c2cc3[nH]c(cc4nc(c5c6[nH]c(cc1n2)c(C)c6C=C(OC)C5=O)[C@@H](CCCC(=O)OC)[C@@H]4C)c(C)c3[C@H](C)OCc1cccc([124I])c1 [Compound 6, Methyl 3-[1′-(m-^124iodobenzyloxy)ethyl]-3-devinyl-13^3-keto-13^2methoxycyclohexene (verdin)]
organ distribution (in words) [7]: significantly higher uptake in tumor than other organs

Singlet oxygen quantum yield φ [2]: 0.45
Compound: HPPH
